Laboratory results taken from patent US7846697B2, “Method of producing a low molecular weight organic compound in a cell” (BLMaps, priority 2003, dated 2010).

Assays:
[1] = system: E. coli strain KO1418 transformants; assay: Toxicity of vanillin with IPTG-induced expression of UGT85B1 or AS, growth on plates; type: cell-based; further: key: −: No growth; +: weak growth; ++: good growth
Method: The E. coli strains TOP10, JM109, and KO1418 were all transformed with the constructed plasmids pJH401, pJH402, pJH411 and pJH412, and pKK223-3 as control, employing standard transformation protocols. Transformants were selected for ampicilin resistance, and two transformants of each E. coli strain with each plasmid were kept for expression experiments. The E. coli transformants were inoculated from plate cultures into 2 ml liquid growth medium (LB medium containing ampicilin at 100 μg/ml), and allowed to grow for 20 hours at 37° C. The precultures were diluted 100 times 10^4 times and 10^6 times in growth medium, and 4 μl droplets of these cell suspensions were applied to the surface of Petri dishes containing solid LB-ampicilin medium containing varying concentrations of vanillin (based on the STV determinations described above), and without or with (to induce gene expression) 1 mM isopropyl thiogalactoside (IPTG). The plates were incubated at 37° C. for 24 hours, after which growth on the various concentrations of vanillin was monitored and recorded.

microorganisms = conditions: Pfeifer et al, 1984; cited from earlier work

With `COc1cc(C=O)ccc1O` [Vanillin, vanillin] the growth ([1]; KO1418 [pJH401], 0.08% vanillin, IPTG induction No) was “++”, the growth ([1]; KO1418 [pJH401], 0.08% vanillin, IPTG induction Yes) was “++” and the growth ([1]; KO1418 [pJH401], 0.12% vanillin, IPTG induction No) was “++”. The growth ([1]; KO1418 [pJH401], 0.12% vanillin, IPTG induction Yes) was “++”, the growth ([1]; KO1418 [pJH401], 0.16% vanillin, IPTG induction No) was “−” and the growth ([1]; KO1418 [pJH401], 0.16% vanillin, IPTG induction Yes) was “++”. The growth ([1]; KO1418 [pJH401], 0.2% vanillin, IPTG induction No) was “−”, the growth ([1]; KO1418 [pJH401], 0.2% vanillin, IPTG induction Yes) was “−” and the growth ([1]; KO1418 [pJH402], 0.08% vanillin, IPTG induction No) was “++”. The growth ([1]; KO1418 [pJH402], 0.08% vanillin, IPTG induction Yes) was “++”, the growth ([1]; KO1418 [pJH402], 0.12% vanillin, IPTG induction No) was “++” and the growth ([1]; KO1418 [pJH402], 0.12% vanillin, IPTG induction Yes) was “++”. The growth ([1]; KO1418 [pJH402], 0.16% vanillin, IPTG induction No) was “+”, the growth ([1]; KO1418 [pJH402], 0.16% vanillin, IPTG induction Yes) was “++” and the growth ([1]; KO1418 [pJH402], 0.2% vanillin, IPTG induction No) was “−”. For the same compound, the growth ([1]; KO1418 [pJH402], 0.2% vanillin, IPTG induction Yes) was “−”, the growth ([1]; KO1418 [pJH410], 0.08% vanillin, IPTG induction No) was “++” and the growth ([1]; KO1418 [pJH410], 0.12% vanillin, IPTG induction Yes) was “++”. The growth ([1]; KO1418 [pJH410], 0.16% vanillin, IPTG induction No) was “++”, the growth ([1]; KO1418 [pJH410], 0.16% vanillin, IPTG induction Yes) was “++” and the growth ([1]; KO1418 [pJH410], 0.2% vanillin, IPTG induction No) was “−”. For the same compound, the growth ([1]; KO1418 [pKK223-3], 0.08% vanillin, IPTG induction No) was “++”, the growth ([1]; KO1418 [pKK223-3], 0.08% vanillin, IPTG induction Yes) was “++” and the growth ([1]; KO1418 [pKK223-3], 0.12% vanillin, IPTG induction No) was “++”. The growth ([1]; KO1418 [pKK223-3], 0.12% vanillin, IPTG induction Yes) was “++”, the growth ([1]; KO1418 [pKK223-3], 0.16% vanillin, IPTG induction No) was “−” and the growth ([1]; KO1418 [pKK223-3], 0.16% vanillin, IPTG induction Yes) was “++”. The growth ([1]; KO1418 [pKK223-3], 0.2% vanillin, IPTG induction No) was “−”, the growth ([1]; KO1418 [pKK223-3], 0.2% vanillin, IPTG induction Yes) was “−” and the “concentration in the medium at which it acts as a strong growth inhibitor” value (microorganisms) was 5 g/L.
